Test results as given in PubChem BioAssay AID248 (DTP/NCI, 2004).
“And” between values parts separate entries of the source, which are not always exact repeats. Equal values may be shown once. Inconclusive results and toxic doses are left out. No stated cut-off is given here; in the data, active means T/C of 150% or more; inactive means T/C below 125%.

System: L1210 leukemia ip in BDF1 mice, survival T/C
Assay: NCI In Vivo Anticancer Drug Screen. Data for tumor model L1210 Leukemia (intraperitoneal) in B6D2F1 (BDF1) mice
Conditions: endpoint: mean survival time, higher = longer survival
Method in brief: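 Antitumor effect is assessed in tumor-bearing animals. Survival in the compound arm is compared with a vehicle-dosed control arm and expressed as their quotient.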

[1] = dose: 25.0 mg/kg/injection, schedule: Q04DX003 (ip), vehicle: saline
[2] = dose: 50.0 mg/kg/injection, schedule: Q04DX003 (ip), vehicle: saline
[3] = dose: 100.0 mg/kg/injection, schedule: Q04DX003 (ip), vehicle: Klucel (hydroxypropylcellulose) (HPC)
[4] = dose: 200.0 mg/kg/injection, schedule: Q04DX003 (ip), vehicle: saline

Measured: T/C

c1nc(SSc2ncnc3nc[nH]c23)c2[nH]cnc2n1
active: dose: 0.8 mg/kg/injection, schedule: Q01DX009 (ip), vehicle: saline 152 % of control | dose: 3.0 mg/kg/injection, schedule: Q04DX003 (ip), vehicle: saline 239 % of control | dose: 7.5 mg/kg/injection, schedule: Q04DX003 (ip), vehicle: saline 189 % of control | dose: 10.0 mg/kg/injection, schedule: Q01DX009 (ip), vehicle: saline 169 % of control | dose: 12.0 mg/kg/injection, schedule: Q04DX003 (ip), vehicle: saline 154 % of control | dose: 15.0 mg/kg/injection, schedule: Q01DX009 (ip), vehicle: saline 154 % of control | dose: 15.0 mg/kg/injection, schedule: Q04DX003 (ip), vehicle: saline 159 % of control | [1] 151 % of control | dose: 26.0 mg/kg/injection, schedule: Q04DX003 (ip), vehicle: saline with Tween-80 157 % of control | dose: 35.0 mg/kg/injection, schedule: Q01DX009 (ip), vehicle: saline with Tween-80 163 % of control | dose: 35.0 mg/kg/injection, schedule: Q04DX003 (ip), vehicle: Klucel (hydroxypropylcellulose) (HPC) 198 % of control | dose: 39.0 mg/kg/injection, schedule: Q04DX003 (ip), vehicle: saline with Tween-80 172 % of control | dose: 44.0 mg/kg/injection, schedule: Q04DX003 (ip), vehicle: saline 202 % of control | dose: 50.0 mg/kg/injection, schedule: Q04DX003 (ip), vehicle: Klucel (hydroxypropylcellulose) (HPC) 152 % of control and 209 % of control | dose: 52.0 mg/kg/injection, schedule: Q04DX003 (ip), vehicle: saline with Tween-80 168 % of control | dose: 66.0 mg/kg/injection, schedule: Q01DX001 (ip), vehicle: saline 157 % of control | dose: 66.0 mg/kg/injection, schedule: Q04DX003 (ip), vehicle: saline 216 % of control | dose: 70.0 mg/kg/injection, schedule: Q04DX003 (ip), vehicle: saline 178 % of control | dose: 100.0 mg/kg/injection, schedule: Q01DX001 (ip), vehicle: saline 155 % of control
123 % of control and 203 % of control: [2]
inactive: dose: 0.1 mg/kg/injection, schedule: Q04DX003 (ip), vehicle: saline 97 % of control | dose: 0.12 mg/kg/injection, schedule: Q04DX003 (ip), vehicle: saline 119 % of control | dose: 0.2 mg/kg/injection, schedule: Q04DX003 (ip), vehicle: saline 119 % of control | dose: 0.25 mg/kg/injection, schedule: Q04DX003 (ip), vehicle: saline 117 % of control | dose: 0.35 mg/kg/injection, schedule: Q01DX009 (ip), vehicle: saline 100 % of control | dose: 0.5 mg/kg/injection, schedule: Q04DX003 (ip), vehicle: saline 120 % of control | dose: 0.8 mg/kg/injection, schedule: Q04DX003 (ip), vehicle: saline with Tween-80 98 % of control | dose: 1.6 mg/kg/injection, schedule: Q04DX003 (ip), vehicle: saline with Tween-80 106 % of control | dose: 3.08 mg/kg/injection, schedule: Q01DX001 (ip), vehicle: saline with Tween-80 121 % of control | dose: 3.25 mg/kg/injection, schedule: Q04DX003 (ip), vehicle: saline with Tween-80 113 % of control | dose: 5.5 mg/kg/injection, schedule: Q04DX003 (ip), vehicle: Klucel (hydroxypropylcellulose) (HPC) 121 % of control | dose: 6.0 mg/kg/injection, schedule: Q04DX003 (ip), vehicle: saline 112 % of control | dose: 10.0 mg/kg/injection, schedule: Q01DX001 (ip), vehicle: saline 118 % of control | dose: 12.0 mg/kg/injection, schedule: Q01DX001 (ip), vehicle: saline 103 % of control | dose: 29.7 mg/kg/injection, schedule: Q04DX003 (ip), vehicle: saline 106 % of control | dose: 30.0 mg/kg/injection, schedule: Q04DX003 (ip), vehicle: saline 90 % of control | dose: 33.0 mg/kg/injection, schedule: Q04DX003 (ip), vehicle: Klucel (hydroxypropylcellulose) (HPC) 120 % of control | dose: 44.0 mg/kg/injection, schedule: Q01DX009 (ip), vehicle: saline 100 % of control | dose: 50.0 mg/kg/injection, schedule: Q01DX009 (ip), vehicle: saline 106 % of control | dose: 63.0 mg/kg/injection, schedule: Q01DX Z (ip), vehicle: saline 95 % of control | dose: 67.5 mg/kg/injection, schedule: Q04DX003 (ip), vehicle: saline 106 % of control | dose: 70.0 mg/kg/injection, schedule: Q01DX009 (ip), vehicle: saline with Tween-80 93 % of control | [3] 124 % of control | dose: 140.0 mg/kg/injection, schedule: Q04DX003 (ip), vehicle: saline 103 % of control | [4] 89 % of control

CCOC(=O)c1ccc(NCCCc2c(C)nc(N)[nH]c2=O)cc1
inactive: dose: 75.0 mg/kg/injection, schedule: Q01DX001 (ip), vehicle: saline with Tween-80 92 % of control | dose: 150.0 mg/kg/injection, schedule: Q01DX001 (ip), vehicle: saline with Tween-80 87 % of control | dose: 300.0 mg/kg/injection, schedule: Q01DX001 (ip), vehicle: saline with Tween-80 90 % of control

CN1N(C(O)C(Cl)(Cl)Cl)C12CCCCC2 (centres undefined)
inactive: dose: 200.0 mg/kg/injection, schedule: Q01DX001 (ip), vehicle: carboxymethylcellulose (CMC) 101 % of control | dose: 400.0 mg/kg/injection, schedule: Q01DX001 (ip), vehicle: carboxymethylcellulose (CMC) 98 % of control

CC[C@]1(O)C[C@H](OC2CC(N(C)C)C(OC3CC(O)C(O)C(C)O3)C(C)O2)c2c(cc3c(c2O)C(=O)c2c(O)ccc(O)c2C3=O)[C@H]1C(=O)OC (some centres undefined)
inactive: dose: 0.2 mg/kg/injection, schedule: Q04DX002 (ip), vehicle: Klucel (hydroxypropylcellulose) (HPC) 104 % of control | dose: 0.4 mg/kg/injection, schedule: Q01DX001 (ip), vehicle: Klucel (hydroxypropylcellulose) (HPC) 108 % of control | dose: 0.4 mg/kg/injection, schedule: Q04DX002 (ip), vehicle: Klucel (hydroxypropylcellulose) (HPC) 114 % of control | dose: 0.8 mg/kg/injection, schedule: Q01DX001 (ip), vehicle: Klucel (hydroxypropylcellulose) (HPC) 105 % of control | dose: 0.8 mg/kg/injection, schedule: Q04DX002 (ip), vehicle: Klucel (hydroxypropylcellulose) (HPC) 107 % of control | dose: 1.6 mg/kg/injection, schedule: Q01DX001 (ip), vehicle: Klucel (hydroxypropylcellulose) (HPC) 111 % of control | dose: 1.6 mg/kg/injection, schedule: Q04DX002 (ip), vehicle: Klucel (hydroxypropylcellulose) (HPC) 107 % of control | dose: 3.2 mg/kg/injection, schedule: Q01DX001 (ip), vehicle: Klucel (hydroxypropylcellulose) (HPC) 116 % of control | dose: 6.4 mg/kg/injection, schedule: Q01DX001 (ip), vehicle: Klucel (hydroxypropylcellulose) (HPC) 120 % of control

CCOC(=O)c1ccc(NCc2cccc([N+](=O)[O-])c2)cc1
inactive: dose: 100.0 mg/kg/injection, schedule: Q01DX001 (ip), vehicle: saline with Tween-80 103 % of control | dose: 200.0 mg/kg/injection, schedule: Q01DX001 (ip), vehicle: saline with Tween-80 90 % of control | dose: 400.0 mg/kg/injection, schedule: Q01DX001 (ip), vehicle: saline with Tween-80 88 % of control

O=C(NCCCl)NC(Cc1ccccc1)Cc1ccccc1
inactive: [3] 95 % of control | dose: 200.0 mg/kg/injection, schedule: Q04DX003 (ip), vehicle: Klucel (hydroxypropylcellulose) (HPC) 91 % of control | dose: 400.0 mg/kg/injection, schedule: Q04DX003 (ip), vehicle: Klucel (hydroxypropylcellulose) (HPC) 95 % of control

N=C(N)c1ccc(-c2nc3ccc(C(=N)N)cc3[nH]2)cc1
inactive: dose: 12.5 mg/kg/injection, schedule: Q04DX003 (ip), vehicle: saline 100 % of control and 103 % of control | [1] 100 % of control and 103 % of control | [2] 100 % of control and 103 % of control

O=C(COc1ccc(Cl)c(Cl)c1)NCCc1cc[n+](Cc2ccc(Cl)c(S(=O)(=O)F)c2)cc1
inactive: dose: 100.0 mg/kg/injection, schedule: Q01DX001 (ip), vehicle: Klucel (hydroxypropylcellulose) (HPC) 96 % of control | dose: 200.0 mg/kg/injection, schedule: Q01DX001 (ip), vehicle: Klucel (hydroxypropylcellulose) (HPC) 94 % of control

COC1OC(CO)C(O)C([N+](=O)[O-])C1O (centres undefined)
inactive: dose: 100.0 mg/kg/injection, schedule: Q04DX003 (ip), vehicle: saline 98 % of control | [4] 102 % of control | dose: 400.0 mg/kg/injection, schedule: Q04DX003 (ip), vehicle: saline 105 % of control

CC(C)=CCC(CCN1CCCC1)(C(N)=O)c1cccc2ccccc12 (centres undefined)
inactive: dose: 5.0 mg/kg/injection, schedule: Q01DX009 (ip), vehicle: Klucel (hydroxypropylcellulose) (HPC) 102 % of control | dose: 5.0 mg/kg/injection, schedule: Q04DX003 (ip), vehicle: Klucel (hydroxypropylcellulose) (HPC) 98 % of control | dose: 10.0 mg/kg/injection, schedule: Q01DX009 (ip), vehicle: Klucel (hydroxypropylcellulose) (HPC) 95 % of control | dose: 10.0 mg/kg/injection, schedule: Q04DX003 (ip), vehicle: Klucel (hydroxypropylcellulose) (HPC) 104 % of control | dose: 20.0 mg/kg/injection, schedule: Q01DX009 (ip), vehicle: Klucel (hydroxypropylcellulose) (HPC) 98 % of control | dose: 20.0 mg/kg/injection, schedule: Q04DX003 (ip), vehicle: Klucel (hydroxypropylcellulose) (HPC) 104 % of control
